The assay concerns the target T1, human vasopressin V2 receptor subtype (Homo sapiens, UniProt P30518).
T1 construct: host or cells: CHO cells, stably transfected (pZeoSV vector); membranes
The assay is described as follows: Vasopressin binding in CHO cell membranes expressing human vasopressin V2 subtype receptors ([3H]arginine vasopressin). The settings on record: 100 nM, values without parentheses. An excerpt: Vasopressin Binding in Chinese Hamster Ovary Cell Membranes Expressing Human Vasopressin V2 Subtype Receptors
Chinese Hamster Ovary (CHO) cells stably transfected with the human V2 subtype receptors were obtained from M. Thibonnier, Case Western Reserve University School of Medicine, Cleveland, Ohio.
A. Passaging and Amplification of Cells:
CHO cells transfected with the human vasopressin V2 subtype receptors obtained from M. Thibonnier (pZeoSV vector) are allowed to grow to confluency (approx. >90%) in T-150 flasks under sterile conditions, in a cell culture medium of F-12 Nutrient Mixture (HAM) with L-glutamine (Gibco Cat. #11765-054) containing 15 mM HEPES (Gibco Cat. #15630-080), 1% antibiotic/antimycotic (add 5 mL 100×, Gibco Cat. #15240-062 per 500 mL F-12), 250 μg/mL Zeocin (add 1.25 mL of 100 mg/mL Invitrogen R-250-01 per 500 mL F-12) and 10% Fetal Bovine Serum (Qualified, heat inactivated, Gibco Cat. #16140-063). The medium is removed by aspiration and the cells washed with 10 mL of Hank's Balanced Salt solution (Gibco Cat. #14175-095). The salt solution is removed by aspiration and the cells trypsinized with 5 mL of trypsin-EDTA (0.05% trypsin, 0.53 mM EDTA-4Na, Gibco Cat. #25300-070) for 1 min. The trypsin is removed by aspiration and the cells dislodged by tapping. Cell Culture medium (e.g. 30 mL for 1:30 split) is immediately added and mixed well to inactivate trypsin. 1 mL of detached cells is added to new culture flasks containing fresh Cell Culture medium (e.g. into 25 mL per T-150 flask), and mixed gently. The cells are incubated at 37° C. in 5% CO2. The medium is changed at 3 to 4 day interval (or as appropriate). The cells grow to confluency (approx. >75%–95%) within 7–8 days. All steps are done under sterile conditions. B. Membrane Preparation: The cells are washed twice gently with Hank's Balanced Salt solution (e.g. use 10 mL per T-150 flask). The excess solution is removed and the cells bathed for 15–30 min. in an enzyme-free Cell Dissociation Buffer (e.g. use 8 mL Hank's Based, Gibco Cat. # 13150-016 per T-150 flask) until cells are loosened. The contents are transferred to centrifuge tubes (50 mL size) kept in ice bath. All subsequent steps are done at 4° C. The tubes are centrifuged at 300×g for 15 min (1380 rpm on SORVAL, Model RT6000D, using rotor for 50 mL tubes). The supernatant is discarded and the cells suspended in homogeneizing buffer (10 mM Tris-HCl containing 0.25 M sucrose and 1 mM EDTA, pH 7.4) ensuring that the volume of the buffer is about ten times the volume of the cell pellet. The cells are pooled into a centrifuge tube (50 mL) and homogenized with Polytron at setting 6 for 10 sec. The homogenate is transferred into a Potter-Elvjehm homogeneizer and homogenized with 3 strokes. The homogenate is centrifuged at 1500×g for 60 min at 4° C. (3100 rpm using SORVAL, model RT6000D, using rotor for 50 mL tubes). The pellet is discarded. The supernatant is centrifuged at 100,000×g for 60 min. at 4° C. (Beckman L8-80M ultracentrifuge; spin at 37,500 rpm with rotor type 70 Ti for 50 mL tubes; 38,000 rpm with type 80Ti for 15 mL tubes; or 35,800 rpm with rotor type 45Ti). The supernantant is discarded and the pellet suspended in 3 to 4 mL of Tris buffer (50 mM TRIS-HCl, pH 7.4). The protein content is estimated by the Bradford or Lowry method. The volume of the membrane suspension is adjusted with the membrane buffer (50 mM Tris-HCl containing 0.1% BSA and 0.1 mM PMSF) to give 3.0 mg/mL (or as appropriate) of protein. The membranes are aliquoted and stored at −70° C. C. Radioligand Binding Assay:
In wells of a 96-well format microtiter plate, is added 90, 110 or 130 μL (to make up a final volume of 200 μL) of assay buffer containing 50 mM of Tris-HCl (pH 7.4), […], 1 mg % aprotinin, 1 mg % leupeptin, 2 mg % 1,10-phenanthroline, 10 mg % trypsin inhibitor, and 0.1 mM PMSF. The inhibitors are added on the day of the experiment. […]
T1 sequence (P30518 whole entry): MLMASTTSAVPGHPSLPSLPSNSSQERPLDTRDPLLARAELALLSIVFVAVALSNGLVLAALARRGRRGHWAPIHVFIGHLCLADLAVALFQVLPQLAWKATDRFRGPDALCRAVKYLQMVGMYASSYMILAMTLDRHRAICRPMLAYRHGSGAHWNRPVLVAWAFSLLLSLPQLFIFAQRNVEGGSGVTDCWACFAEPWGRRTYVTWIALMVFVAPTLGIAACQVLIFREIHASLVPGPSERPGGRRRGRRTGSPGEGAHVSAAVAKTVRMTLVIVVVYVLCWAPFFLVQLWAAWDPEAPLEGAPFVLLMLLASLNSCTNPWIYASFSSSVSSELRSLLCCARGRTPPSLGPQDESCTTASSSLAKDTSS
`COc1cccc(C2=C(c3ccc(C(=O)N4Cc5cccn5Cc5ccccc54)cc3C)CCCC2)c1` [Example 38, (10,11-Dihydro-5H-pyrrolo[2,1-c][1,4]benzodiazepin-10-yl)-{4-[2-(3-methoxy-phenyl)-cyclohex-1-en-1-yl]-3-methyl-phenyl}-methanone]: the inhibition at 0.1 µM was -9%.
As to `Cc1cc(C(=O)N2Cc3cccn3Cc3ccccc32)ccc1C1=CC(=O)CCC1` [Example 39, 3-[4-(10,11-Dihydro-5H-pyrrolo[2,1-c][1,4]benzodiazepine-10-carbonyl)-2-methyl-phenyl]-cyclohex-2-en-1-one], the inhibition at 0.1 µM came out at 38%.
The figure for `Cc1cc(C(=O)N2Cc3cccn3Cc3ccccc32)ccc1C1=CC(O)CCC1` (centres unmarked) [Example 40, (10,11-Dihydro-5H-pyrrolo[2,1-c][1,4]benzodiazepin-10-yl)-[4-(3-hydroxy-cyclohex-1-en-1-yl)-3-methyl-phenyl]-methanone] is 48%; for `CO[C@@H]1CCCC(c2ccc(C(=O)N3Cc4cccn4Cc4ccccc43)cc2C)=C1C` [Example 44, 10-{4-[(3R)-3-Methoxy-2-methylcyclohex-1-en-1-yl]-3-methylbenzoyl}-10,11-dihydro-5H-pyrrolo[2,1-c][1,4]benzodiazepine] it is 86%.
On to `CC1=C(c2ccc(C(=O)N3Cc4cccn4Cc4ccccc43)cc2C)CCCC1N` (centres unmarked) [Example 45, [4-(3-Amino-2-methyl-cyclohex-1-en-1-yl)-3-methyl-phenyl]-(10,11-dihydro-5H-pyrrolo[2,1-c][1,4]benzodiazepin-10-yl)-methanone], for which the inhibition at 0.1 µM amounted to 27%.

In general, inhibition refers to the drop in the measured response relative to a control, in per cent.

Source of the values: patent US7022699B2, “Cyclohexenyl phenyl diazepines vasopressin and oxytocin receptor modulators” (Wyeth, priority 2001, dated 2006).
